Assay: binding affinity was evaluated by measuring the ability to displace [3H]DPDPE radioligand binding from delta opioid receptor in guinea pig brain membranes

## CCCCOc1c(O)ccc2c1C13CCN(CC4CC4)C(C2)[C@]1(OC)CCC(=O)C3 (stereo not given in full) [3-butoxy-17-cyclopropylmethyl-4-hydroxy-10-methoxy-17-azatetracyclo[7.5.3.01,10.02,7]heptadeca-2(7),3,5-trien-13-one]
  Ki: 0.042 µM

## COc1c(O)ccc2c1C13CCN(CC4CC4)C(C2)[C@]1(O)CCC(=O)C3 (stereo not given in full) [17-cyclopropylmethyl-4,10-dihydroxy-3-methoxy-17-azatetracyclo[7.5.3.01,10.02,7]heptadeca-2(7),3,5-trien-13-one]
  Ki: 0.334 µM

## COc1c(O)ccc2c1C13CCN(CC4CC4)C(C2)[C@]1(OC)CCC(=O)C3 (stereo not given in full) [17-cyclopropylmethyl-4-hydroxy-3,10-dimethoxy-17-azatetracyclo[7.5.3.01,10.02,7]heptadeca-2(7),3,5-trien-13-one]
  Ki: 0.014 µM

## CCO[C@@]12CCC(=O)CC13CCN(CC1CC1)C2Cc1ccc(O)c(OC)c13 (stereo not given in full) [17-cyclopropylmethyl-10-ethoxy-4-hydroxy-3-methoxy-17-azatetracyclo[7.5.3.01,10.02,7]heptadeca-2(7),3,5-trien-13-one]
  Ki: 0.021 µM

## COc1cccc2c1[C@]13CCN(CC4CC4)[C@H](C2)[C@]1(OC)CCC(=O)C3 [Naltrindole analogue]
  Ki: 0.061 µM

Source: BindingDB's records for doi:10.1021/jm00016a010 (University of Innsbruck, 1995)
